Molecules are shown by their SMILES. In brackets after ≈: the same amount, converted by molar mass. Activity calls are given as the source filed them.

Data on 15 compounds can be found in ChEMBL document CHEMBL1154515, “Gamma-pyrone natural products--a privileged compound class provided by nature” (Bioorg Med Chem, 2009).

Data set [1] concerns T-cell. The experiment in a line: Inhibition of Concanavalin A-induced T cell proliferation. The data set is classed as functional, cell-based.
Data set [2] deals with B-cell. The experiment in a line: Inhibition of LPS-induced B cell proliferation. In kind it is functional, cell-based.
Data set [3] concerns Leptinotarsa decemlineata. The experiment in a line: Insecticidal activity against Leptinotarsa decemlineata at 1000 ppm. In kind it is functional, organism-based.
The test system of data set [4] is Helicobacter pylori. The experiment in a line: Antimicrobial activity against Helicobacter pylori. The data set is classed as functional.
The subject of data set [5] is HT-1080. The experiment in a line: Cytotoxicity against human HT1080 cells. The data set is classed as functional, cell-based.
Data set [6] addresses T1, Potassium voltage-gated channel subfamily A member 3 (Homo sapiens, UniProt P22001). The experiment in a line: Inhibition of voltage-gated Kv1.3 potassium channel expressed in CHO cells by 86Rb efflux experiment. In kind it is cell-based.
The nature of data set [7]: Toxicity in ip dosed rat. As to conditions: in vivo. In kind it is organism-based.
Data set [8] deals with T1, Potassium voltage-gated channel subfamily A member 3. The data set is described as follows: Antagonist activity at voltage-gated Kv1.3 potassium channel. In kind it is functional.
Data set [9] is described as follows: Depolarization of human T cells by electrophysiological method. In kind it is functional, cell-based. The conditions noted are these: T-cell.
Data set [10] is described as follows: Inhibition of NADH fumarate reductase.
Data set [11] has as its system Leptinotarsa decemlineata. The data set is described as follows: Insecticidal activity against Leptinotarsa decemlineata. In kind it is functional.

T1 sequence (P22001 whole entry): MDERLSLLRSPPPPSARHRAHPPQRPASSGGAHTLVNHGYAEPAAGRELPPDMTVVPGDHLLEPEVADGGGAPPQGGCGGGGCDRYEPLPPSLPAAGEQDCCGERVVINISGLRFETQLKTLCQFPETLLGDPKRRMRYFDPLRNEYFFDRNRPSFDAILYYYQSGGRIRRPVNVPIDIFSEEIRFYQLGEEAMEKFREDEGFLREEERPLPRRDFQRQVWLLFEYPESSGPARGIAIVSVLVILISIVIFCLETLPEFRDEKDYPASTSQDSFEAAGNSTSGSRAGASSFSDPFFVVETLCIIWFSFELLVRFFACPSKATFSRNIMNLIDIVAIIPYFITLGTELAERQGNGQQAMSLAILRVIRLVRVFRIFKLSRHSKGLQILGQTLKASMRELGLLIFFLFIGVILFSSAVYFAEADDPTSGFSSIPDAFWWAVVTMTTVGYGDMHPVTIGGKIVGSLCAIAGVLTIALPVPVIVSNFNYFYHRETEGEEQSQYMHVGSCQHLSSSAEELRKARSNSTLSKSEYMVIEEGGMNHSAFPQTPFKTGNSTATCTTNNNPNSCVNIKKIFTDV

Broadly, the IC50 is the point on the concentration scale where inhibition reaches its midpoint. Lower therefore signals greater potency in that assay. For `COc1oc([C@@H]2C[C@@]3(CO2)[C@H](c2ccc([N+](=O)[O-])cc2)[C@]2(C)C=C(C)C=C(C)[C@@H]23)c(C)c(=O)c1C`, 200 nM corresponded to half-maximal inhibition in data set [1] (IC50). In data set [2], `COc1oc([C@H]2C[C@@]3(CO2)[C@H](c2ccc([N+](=O)[O-])cc2)[C@]2(C)C=C(C)C=C(C)[C@@H]23)c(C)c(=O)c1C` gave a half-inhibitory concentration (IC50) of 800 nM. Consider `C=C1CC[C@@H]2[C@](C)(CC[C@H](O)[C@@]2(C)CCC=C(C)C)[C@@H]1Cc1c(OC)oc(C)c(C)c1=O`, for which the result in data set [3] was inactive. As a reminder, the MIC is the smallest concentration in the dilution series that meets the test's criterion for growth inhibition. High values mean a need for much substance, low ones inhibition by little substance. Take `C/C=C(\C)[C@H](O)[C@H](C)/C=C(C)/C=C/C/C(C)=C/Cc1oc(OC)c(C)c(=O)c1C` [ACTINOPYRONE A]: in data set [4], the MIC was 0.1 ng/mL (≈ 0.25 nM). Still for that read-out and setting: under `C/C=C(\C)[C@H](O)[C@H](C)/C=C(C)/C=C/C/C(C)=C/Cc1oc(OC)cc(=O)c1C` [ACTINOPYRONE B] stands 0.1 ng/mL (≈ 0.259 nM); under `C/C=C(\C)[C@H](O)[C@H](C)/C=C(C)/C=C/C/C(C)=C/Cc1oc(OC)c(CC)c(=O)c1C` [ACTINOPYRONE C], 0.1 ng/mL (≈ 0.241 nM). With `COc1oc([C@H]2C/C(=C/C(C)=C\c3ccc([N+](=O)[O-])cc3)CO2)c(C)c(=O)c1C` [ALLOAUREOTHIN], in data set [5], the half-inhibitory concentration (IC50) is 30 µM. Turning to `C=C1CC[C@@H]2[C@](C)(CC[C@H]3OC=CC[C@]23C)[C@@H]1Cc1c(OC)oc(C)c(C)c1=O` [CANDELALIDE A], the IC50 in [6] is 3700 nM. The same measure, in the same setting: under `C=C1CC[C@@H]2[C@](C)(CC[C@H]3OC(C(C)(C)O)=C(O)C[C@]23C)[C@@H]1Cc1c(OC)oc(C)c(C)c1=O` [CANDELALIDE B] stands 1200 nM; under `C=C1CC[C@@H]2[C@](C)(CC[C@H]3OC(C(C)(C)O)=CC[C@]23C)[C@H]1Cc1c(OC)oc(C)c(C)c1=O` [CANDELALIDE C], 2500 nM. For orientation: LD50 means the dose expected to kill half of the subjects tested. Read a low LD50 as greater toxicity. Compound `C=C1CC[C@@H]2[C@@](C)(CCC(C)(C)O)[C@@H](O)CC[C@@]2(C)[C@H]1Cc1c(OC)oc(C)c(C(=O)OC)c1=O` [COLLECTOTRICHIN A] gave a 50% lethal dose (LD50) in [7] of 16 mg/kg. Usually EC50 stands for the concentration at which the effect is half-maximal. A low value points to higher potency in that assay. `C=C1CC[C@H]2[C@](C)(CCC=C(C)C)[C@@H](OC(C)=O)CC[C@]2(C)[C@@H]1Cc1c(OC)oc(C)c(C)c1=O` [NALANTHALIDE] displayed an IC50 in data set [8] of 3.9 µM. Further, the concentration for a half-maximal effect (EC50) in data set [9] turned out to be 500 nM. The compound `COc1oc([C@H]2C/C(=C/C(C)=C/C(C)=C/C(C)=C/c3ccc([N+](=O)[O-])cc3)CO2)c(C)c(=O)c1C` [SPECTINABILIN] displayed an IC50 in [10] of 15 nM. As usually defined, the LC50 is the concentration that kills 50% of the test population. A higher LC50 goes with lower toxicity. For the compound `C=C1CC[C@H]2[C@](C)(CCC=C(C)C)[C@@H](OC(=O)[C@H](OC)[C@@H](C)CC)CC[C@]2(C)[C@@H]1Cc1c(OC)oc(C)c(C)c1=O` [VIRIDOXIN A], the LC50 in data set [11] amounted to 39.7 µg/mL (≈ 69600 nM). The same measure, in the same setting: under `C=C1CC[C@H]2[C@](C)(CCC=C(C)C)[C@@H](OC(=O)[C@H](O)[C@@H](C)CC)CC[C@]2(C)[C@@H]1Cc1c(OC)oc(C)c(C)c1=O` [VIRIDOXIN B] stands 50.7 µg/mL (≈ 91100 nM).
